Source: ChEMBL document CHEMBL1201861, “Genomics of Drug Sensitity in Cancer screening data, Wellcome Trust Sanger Institute”

Tests used:
Assay in all cases: cells
CA46 = type: functional, cell-based, Homo sapiens; settings: Homo sapiens, CA46;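 note: growth inhibition of human CA46 cells, read out by a cell viability assay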
Description: SANGER: Inhibition of human CA46 cell growth in a cell viability assay.

SW837 = type: functional, cell-based; settings: Homo sapiens;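 note: growth inhibition of SW837 cells, determined with a cell viability assay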
Description: SANGER: Inhibition of human SW837 cell growth in a cell viability assay.

LB647-SCLC = type: functional, cell-based, Homo sapiens; settings: Homo sapiens, LB647-SCLC;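 note: cell growth inhibition, read out by a viability assay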
Description: SANGER: Inhibition of human LB647-SCLC cell growth in a cell viability assay.

SN12C = type: functional, cell-based; settings: Homo sapiens;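 note: growth inhibition of human SN12C cells, measured by a cell viability assay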
Description: SANGER: Inhibition of human SN12C cell growth in a cell viability assay.

BCPAP = type: functional, cell-based; settings: Homo sapiens;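 note: growth inhibition of BCPAP cells, read out in a cell viability assay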
Description: SANGER: Inhibition of human BCPAP cell growth in a cell viability assay.

HN = type: functional, cell-based; settings: Homo sapiens
Description: SANGER: Inhibition of human HN cell growth in a cell viability assay.

BC-3 = type: functional, cell-based, Homo sapiens; settings: Homo sapiens, BC-3;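 note: cell viability assay measuring growth inhibition of human BC-3 cells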
Description: SANGER: Inhibition of human BC-3 cell growth in a cell viability assay.

SW1417 = type: functional, cell-based; settings: Homo sapiens;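 note: growth inhibition of human SW1417 cells, read out with a cell viability assay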
Description: SANGER: Inhibition of human SW1417 cell growth in a cell viability assay.

A673 = type: functional, cell-based; settings: Homo sapiens;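 note: growth inhibition of human A673 cells, read out through a cell viability assay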
Description: SANGER: Inhibition of human A673 cell growth in a cell viability assay.

Calu-3 = type: functional, cell-based; settings: Homo sapiens;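 note: growth inhibition of human Calu-3 cells, determined with a cell viability assay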
Description: SANGER: Inhibition of human Calu-3 cell growth in a cell viability assay.

NCI-H2052 = type: functional, cell-based; settings: Homo sapiens;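 note: growth inhibition of NCI-H2052 cells, read out with a cell viability assay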
Description: SANGER: Inhibition of human NCI-H2052 cell growth in a cell viability assay.

ChaGo-K-1 = type: functional, cell-based; settings: Homo sapiens;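 note: growth inhibition of ChaGo-K-1 cells, read out with a cell viability assay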
Description: SANGER: Inhibition of human ChaGo-K-1 cell growth in a cell viability assay.

ASPC1 = type: functional, cell-based; settings: Homo sapiens;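 note: growth inhibition of AsPC-1 cells, read out with a cell viability assay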
Description: SANGER: Inhibition of human AsPC-1 cell growth in a cell viability assay.

LU-165 = type: functional, cell-based, Homo sapiens; settings: Homo sapiens, LU-165
Description: SANGER: Inhibition of human LU-165 cell growth in a cell viability assay.

SCC-3 = type: functional, cell-based, Homo sapiens; settings: Homo sapiens, SCC-3;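 note: cell viability assay measuring inhibition of SCC-3 cell growth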
Description: SANGER: Inhibition of human SCC-3 cell growth in a cell viability assay.

D-542MG = type: functional, cell-based; settings: Homo sapiens
Description: SANGER: Inhibition of human D-542MG cell growth in a cell viability assay.

KOSC-2 = type: functional, cell-based; settings: Homo sapiens;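 note: growth inhibition of KOSC-2 cells, read out by a cell viability assay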
Description: SANGER: Inhibition of human KOSC-2 cell growth in a cell viability assay.

OVCAR-8 = type: functional, cell-based; settings: Homo sapiens;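 note: growth inhibition of human OVCAR-8 cells, read out by a cell viability assay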
Description: SANGER: Inhibition of human OVCAR-8 cell growth in a cell viability assay.

SK-HEP1 = type: functional, cell-based, SK-HEP-1; settings: Homo sapiens;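 note: cell viability readout used to quantify reduction in proliferation of human SK-HEP-1 cells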
Description: SANGER: Inhibition of human SK-HEP-1 cell growth in a cell viability assay.

MEL-JUSO = type: functional, cell-based; settings: Homo sapiens;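 note: growth inhibition of human MEL-JUSO cells, read out with a cell viability assay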
Description: SANGER: Inhibition of human MEL-JUSO cell growth in a cell viability assay.

NCI-H1882 = type: functional, cell-based, Homo sapiens; settings: Homo sapiens, NCI-H1882;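 note: growth inhibition of the cell line, determined with a viability assay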
Description: SANGER: Inhibition of human NCI-H1882 cell growth in a cell viability assay.

RVH-421 = type: functional, cell-based; settings: Homo sapiens
Description: SANGER: Inhibition of human RVH-421 cell growth in a cell viability assay.

REH = type: functional, cell-based, Homo sapiens; settings: Homo sapiens, REH;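 note: growth inhibition of REH cells determined with a cell viability read-out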
Description: SANGER: Inhibition of human REH cell growth in a cell viability assay.

MKN-7 = type: functional, cell-based; settings: Homo sapiens;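 note: growth inhibition of MKN-7 cells, read out with a cell viability assay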
Description: SANGER: Inhibition of human MKN7 cell growth in a cell viability assay.

CAL-27 = type: functional, cell-based; settings: Homo sapiens;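 note: Viability-based readout, IC50 reflecting inhibition of CAL-27 cell growth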
Description: SANGER: Inhibition of human CAL-27 cell growth in a cell viability assay.

NCI-H661 = type: functional, cell-based; settings: Homo sapiens;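 note: cell viability assay read-out, IC50 being the concentration that inhibits growth of the cells by half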
Description: SANGER: Inhibition of human NCI-H661 cell growth in a cell viability assay.

SW13 = type: functional, cell-based; settings: Homo sapiens;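 note: IC50 is inhibition of SW13 cell growth, read out with a cell viability assay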
Description: SANGER: Inhibition of human SW13 cell growth in a cell viability assay.

KYSE-270 = type: functional, cell-based; settings: Homo sapiens;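 note: cell growth inhibition measured with a viability assay in the human KYSE-270 line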
Description: SANGER: Inhibition of human KYSE-270 cell growth in a cell viability assay.

MeWo = type: functional, cell-based; settings: Homo sapiens;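 note: growth inhibition of MeWo cells, determined by a cell viability readout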
Description: SANGER: Inhibition of human Mewo cell growth in a cell viability assay.

TE-441-T = type: functional, cell-based, Homo sapiens; settings: Homo sapiens, TE-441-T
Description: SANGER: Inhibition of human TE-441-T cell growth in a cell viability assay.

M14 = type: functional, cell-based; settings: Homo sapiens;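 note: growth inhibition of M14 cells, read out with a cell viability assay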
Description: SANGER: Inhibition of human M14 cell growth in a cell viability assay.

BEN = type: functional, cell-based; settings: Homo sapiens;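 note: growth inhibition of the BEN cell line, read out with a cell viability assay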
Description: SANGER: Inhibition of human BEN cell growth in a cell viability assay.

T47D = type: functional, cell-based; settings: Homo sapiens;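 note: growth inhibition of human T47D cells, measured with a cell viability assay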
Description: SANGER: Inhibition of human T47D cell growth in a cell viability assay.

NCI-H510A = type: functional, cell-based, Homo sapiens; settings: Homo sapiens, NCI-H510A;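 note: growth inhibition of NCI-H510A cells, read out with a cell viability assay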
Description: SANGER: Inhibition of human NCI-H510A cell growth in a cell viability assay.

ESS-1 = type: functional, cell-based; settings: Homo sapiens;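 note: growth inhibition of human ESS-1 cells, read out by a cell viability assay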
Description: SANGER: Inhibition of human ESS-1 cell growth in a cell viability assay.

SIMA = type: functional, cell-based, Homo sapiens; settings: Homo sapiens, SIMA;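 note: growth inhibition of SIMA cells, measured with a cell viability readout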
Description: SANGER: Inhibition of human SIMA cell growth in a cell viability assay.

PANC-08-13 = type: functional, cell-based; settings: Homo sapiens;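 note: cell growth inhibition, measured with a cell viability assay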
Description: SANGER: Inhibition of human PANC-08-13 cell growth in a cell viability assay.

RPMI-7951 = type: functional, cell-based; settings: Homo sapiens
Description: SANGER: Inhibition of human RPMI-7951 cell growth in a cell viability assay.

NCI-H358 = type: functional, cell-based; settings: Homo sapiens;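 note: growth inhibition of NCI-H358 human cells, read out with a cell viability assay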
Description: SANGER: Inhibition of human NCI-H358 cell growth in a cell viability assay.

UO-31 = type: functional, cell-based; settings: Homo sapiens;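 note: cell viability assay measuring inhibition of cell growth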
Description: SANGER: Inhibition of human U031 cell growth in a cell viability assay.

SAOS-2 = type: functional, cell-based; settings: Homo sapiens;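 note: growth inhibition of human Saos-2 cells determined by a cell viability assay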
Description: SANGER: Inhibition of human Saos-2 cell growth in a cell viability assay.

SW1463 = type: functional, cell-based; settings: Homo sapiens;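 note: growth inhibition of SW1463 cells, determined with a cell viability assay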
Description: SANGER: Inhibition of human SW1463 cell growth in a cell viability assay.

MKN-45 = type: functional, cell-based; settings: Homo sapiens;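 note: growth inhibition of human MKN-45 cells, measured with a cell viability assay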
Description: SANGER: Inhibition of human MKN45 cell growth in a cell viability assay.

MRK-nu-1 = type: functional, cell-based, Homo sapiens; settings: Homo sapiens, MRK-nu-1;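 note: cell viability assay measuring growth suppression of human MRK-nu-1 cells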
Description: SANGER: Inhibition of human MRK-nu-1 cell growth in a cell viability assay.

HT1197 = type: functional, cell-based, HT-1197; settings: Homo sapiens
Description: SANGER: Inhibition of human HT-1197 cell growth in a cell viability assay.

GDM-1 = type: functional, cell-based, Homo sapiens; settings: Homo sapiens, GDM-1; read-out: IC50;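 note: cell viability readout used to measure growth inhibition of human GDM-1 cells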
Description: SANGER: Inhibition of human GDM-1 cell growth in a cell viability assay.

CAL-148 = type: functional, cell-based, Homo sapiens; settings: Homo sapiens, CAL-148
Description: SANGER: Inhibition of human CAL-148 cell growth in a cell viability assay.

8305C = type: functional, cell-based; settings: Homo sapiens
Description: SANGER: Inhibition of human 8305C cell growth in a cell viability assay.

Daudi = type: functional, cell-based, Homo sapiens; settings: Homo sapiens, Daudi;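 note: growth inhibition of Daudi cells, read out by a viability assay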
Description: SANGER: Inhibition of human Daudi cell growth in a cell viability assay.

JEG-3 = type: functional, cell-based; settings: Homo sapiens;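 note: growth inhibition of human JEG-3 cells, read out with a cell viability assay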
Description: SANGER: Inhibition of human JEG-3 cell growth in a cell viability assay.

Daoy = type: functional, cell-based; settings: Homo sapiens;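 note: daoy cell growth inhibition, read out as cell viability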
Description: SANGER: Inhibition of human Daoy cell growth in a cell viability assay.

LCLC-103H cell line = type: functional, cell-based; settings: Homo sapiens
Description: SANGER: Inhibition of human LCLC-103H cell growth in a cell viability assay.

LN-405 = type: functional, cell-based; settings: Homo sapiens
Description: SANGER: Inhibition of human LN-405 cell growth in a cell viability assay.

CWR22R = type: functional, cell-based; settings: Homo sapiens, 22Rv1;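 note: growth inhibition of 22Rv1 cells, read out with a cell viability assay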
Description: SANGER: Inhibition of human 22RV1 cell growth in a cell viability assay.

SIG-M5 = type: functional, cell-based, Homo sapiens; settings: Homo sapiens, SIG-M5;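 note: cell viability assay read-out, measuring how strongly growth of cultured human SIG-M5 cells is inhibited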
Description: SANGER: Inhibition of human SIG-M5 cell growth in a cell viability assay.

HuP-T3 = type: functional, cell-based; settings: Homo sapiens;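 note: HuP-T3 cell growth inhibition, read out with a cell viability assay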
Description: SANGER: Inhibition of human HuP-T3 cell growth in a cell viability assay.

SW756 = type: functional, cell-based; settings: Homo sapiens;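 note: growth inhibition of human SW756 cells, read out with a cell viability assay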
Description: SANGER: Inhibition of human SW756 cell growth in a cell viability assay.

EW-22 = type: functional, cell-based; settings: Homo sapiens;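 note: growth inhibition of the EW-22 cell line, measured with a cell viability readout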
Description: SANGER: Inhibition of human EW-22 cell growth in a cell viability assay.

NB17 = type: functional, cell-based, Homo sapiens; settings: Homo sapiens, NB17;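 note: growth inhibition of NB17 cells, read out with a cell viability assay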
Description: SANGER: Inhibition of human NB17 cell growth in a cell viability assay.

NCI-H630 = type: functional, cell-based; settings: Homo sapiens;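 note: growth inhibition of NCI-H630 cells, read out with a cell viability assay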
Description: SANGER: Inhibition of human NCI-H630 cell growth in a cell viability assay.

CCCCCCCCCCCC1=C(O)C(=O)C=C(O)C1=O [EMBELIN]
IC50 (CA46): 18700 nM
IC50 (SW837): 18000 nM
IC50 (LB647-SCLC): > 32000 nM
IC50 (SN12C): 26600 nM
IC50 (BCPAP): 13700 nM
IC50 (HN): 24800 nM
IC50 (BC-3): > 32000 nM
IC50 (SW1417): > 32000 nM
IC50 (A673): 12600 nM
IC50 (Calu-3): 8450 nM
IC50 (NCI-H2052): 8530 nM
IC50 (ChaGo-K-1): 7080 nM
IC50 (ASPC1): > 32000 nM
IC50 (LU-165): > 32000 nM
IC50 (SCC-3): > 32000 nM
IC50 (D-542MG): 3130 nM
IC50 (KOSC-2): > 32000 nM
IC50 (OVCAR-8): 11300 nM
IC50 (SK-HEP1): 9580 nM
IC50 (MEL-JUSO): 7850 nM
IC50 (NCI-H1882): > 32000 nM
IC50 (RVH-421): 11500 nM
IC50 (REH): 8620 nM
IC50 (MKN-7): > 32000 nM
IC50 (CAL-27): 13100 nM
IC50 (NCI-H661): 19200 nM
IC50 (SW13): 12600 nM
IC50 (KYSE-270): 8860 nM
IC50 (MeWo): 15900 nM
IC50 (TE-441-T): > 32000 nM
IC50 (M14): 11000 nM
IC50 (BEN): > 32000 nM
IC50 (T47D): > 32000 nM
IC50 (NCI-H510A): > 32000 nM
IC50 (ESS-1): 9420 nM
IC50 (SIMA): 6370 nM
IC50 (PANC-08-13): > 32000 nM
IC50 (RPMI-7951): 25600 nM
IC50 (NCI-H358): 11100 nM
IC50 (UO-31): 19100 nM
IC50 (SAOS-2): 3950 nM
IC50 (SW1463): > 32000 nM
IC50 (MKN-45): 7980 nM
IC50 (MRK-nu-1): 12900 nM
IC50 (HT1197): 25300 nM
IC50 (GDM-1): 28000 nM
IC50 (CAL-148): > 32000 nM
IC50 (8305C): 25700 nM
IC50 (Daudi): 5750 nM
IC50 (JEG-3): 16800 nM
IC50 (Daoy): 5460 nM
IC50 (LCLC-103H cell line): 9060 nM
IC50 (LN-405): 18800 nM
IC50 (CWR22R): 22500 nM
IC50 (SIG-M5): 1310 nM
IC50 (HuP-T3): > 32000 nM
IC50 (SW756): > 32000 nM

C/C(=C\c1csc(C)n1)[C@@H]1C[C@@H]2O[C@]2(C)CCC[C@H](C)[C@H](O)[C@@H](C)C(=O)C(C)(C)[C@@H](O)CC(=O)O1 [PATUPILONE]
IC50 (CA46): 9.61 nM
IC50 (SW837): 2.47 nM
IC50 (LB647-SCLC): 3.1 nM
IC50 (SN12C): 9.39 nM
IC50 (BCPAP): 0.581 nM
IC50 (HN): > 32 nM
IC50 (BC-3): 8.39 nM
IC50 (SW1417): > 32 nM
IC50 (A673): 2.48 nM
IC50 (Calu-3): 1.68 nM
IC50 (NCI-H2052): > 32 nM
IC50 (ChaGo-K-1): 9.61 nM
IC50 (ASPC1): > 32 nM
IC50 (LU-165): > 32 nM
IC50 (SCC-3): > 32 nM
IC50 (D-542MG): > 32 nM
IC50 (KOSC-2): 2.83 nM
IC50 (OVCAR-8): 1.06 nM
IC50 (SK-HEP1): 1.11 nM
IC50 (MEL-JUSO): 0.928 nM
IC50 (NCI-H1882): > 32 nM
IC50 (RVH-421): 14.3 nM
IC50 (REH): 1.76 nM
IC50 (MKN-7): > 32 nM
IC50 (CAL-27): 1.39 nM
IC50 (NCI-H661): 30.1 nM
IC50 (SW13): 5.01 nM
IC50 (KYSE-270): 0.445 nM
IC50 (MeWo): > 32 nM
IC50 (TE-441-T): 26.3 nM
IC50 (M14): > 32 nM
IC50 (BEN): 20.6 nM
IC50 (T47D): > 32 nM
IC50 (NCI-H510A): 11.9 nM
IC50 (ESS-1): 1.52 nM
IC50 (SIMA): 19.1 nM
IC50 (PANC-08-13): 31.1 nM
IC50 (RPMI-7951): 1.05 nM
IC50 (NCI-H358): 2.48 nM
IC50 (UO-31): 3.12 nM
IC50 (SAOS-2): > 32 nM
IC50 (SW1463): > 32 nM
IC50 (MKN-45): 4.38 nM
IC50 (MRK-nu-1): 0.9 nM
IC50 (HT1197): > 32 nM
IC50 (GDM-1): 4.31 nM
IC50 (CAL-148): 6.26 nM
IC50 (8305C): 2.32 nM
IC50 (Daudi): 24.8 nM
IC50 (JEG-3): 5.01 nM
IC50 (Daoy): < 0.125 nM
IC50 (LCLC-103H cell line): 0.31 nM
IC50 (LN-405): > 32 nM
IC50 (CWR22R): 8.41 nM
IC50 (SIG-M5): 0.169 nM
IC50 (HuP-T3): 3.81 nM
IC50 (SW756): > 32 nM

O=C(NCCCNc1nc(Nc2cccc(NC(=O)N3CCCC3)c2)ncc1I)c1cccs1 [BX-795]
IC50 (SW837): > 5000 nM
IC50 (SN12C): > 5000 nM
IC50 (BCPAP): 2230 nM
IC50 (HN): 2120 nM
IC50 (SW1417): > 5000 nM
IC50 (A673): > 5000 nM
IC50 (Calu-3): > 5000 nM
IC50 (NCI-H2052): > 5000 nM
IC50 (ChaGo-K-1): > 5000 nM
IC50 (ASPC1): > 5000 nM
IC50 (KOSC-2): 3070 nM
IC50 (OVCAR-8): > 5000 nM
IC50 (SK-HEP1): 2970 nM
IC50 (EW-22): 3910 nM
IC50 (RVH-421): > 5000 nM
IC50 (MKN-7): > 5000 nM
IC50 (CAL-27): > 5000 nM
IC50 (NCI-H661): > 5000 nM
IC50 (SW13): > 5000 nM
IC50 (KYSE-270): > 5000 nM
IC50 (MeWo): > 5000 nM
IC50 (M14): > 5000 nM
IC50 (BEN): > 5000 nM
IC50 (T47D): > 5000 nM
IC50 (ESS-1): > 5000 nM
IC50 (PANC-08-13): > 5000 nM
IC50 (RPMI-7951): 3190 nM
IC50 (NCI-H358): > 5000 nM
IC50 (NB17): > 5000 nM
IC50 (UO-31): > 5000 nM
IC50 (SAOS-2): 4120 nM
IC50 (SW1463): > 5000 nM
IC50 (MKN-45): > 5000 nM
IC50 (HT1197): > 5000 nM
IC50 (8305C): 3610 nM
IC50 (JEG-3): > 5000 nM
IC50 (Daoy): > 5000 nM
IC50 (LCLC-103H cell line): 4070 nM
IC50 (LN-405): > 5000 nM
IC50 (CWR22R): > 5000 nM
IC50 (NCI-H630): > 5000 nM
IC50 (HuP-T3): > 5000 nM
IC50 (SW756): > 5000 nM

CC1(C)CCC(c2ccc(Cl)cc2)=C(CN2CCN(c3ccc(C(=O)NS(=O)(=O)c4ccc(N[C@H](CCN5CCOCC5)CSc5ccccc5)c(S(=O)(=O)C(F)(F)F)c4)cc3)CC2)C1 [NAVITOCLAX]
IC50 (SW837): > 2000 nM
IC50 (SN12C): > 2000 nM
IC50 (BCPAP): > 2000 nM
IC50 (HN): > 2000 nM
IC50 (SW1417): 554 nM
IC50 (A673): > 2000 nM
IC50 (Calu-3): 1710 nM
IC50 (NCI-H2052): 1720 nM
IC50 (ChaGo-K-1): > 2000 nM
IC50 (ASPC1): > 2000 nM
IC50 (KOSC-2): > 2000 nM
IC50 (OVCAR-8): > 2000 nM
IC50 (SK-HEP1): > 2000 nM
IC50 (EW-22): 467 nM
IC50 (RVH-421): > 2000 nM
IC50 (MKN-7): > 2000 nM
IC50 (CAL-27): > 2000 nM
IC50 (NCI-H661): > 2000 nM
IC50 (SW13): > 2000 nM
IC50 (KYSE-270): > 2000 nM
IC50 (MeWo): > 2000 nM
IC50 (M14): > 2000 nM
IC50 (BEN): 240 nM
IC50 (T47D): > 2000 nM
IC50 (ESS-1): > 2000 nM
IC50 (PANC-08-13): > 2000 nM
IC50 (RPMI-7951): > 2000 nM
IC50 (NCI-H358): > 2000 nM
IC50 (NB17): 71.2 nM
IC50 (UO-31): > 2000 nM
IC50 (SAOS-2): > 2000 nM
IC50 (SW1463): > 2000 nM
IC50 (MKN-45): > 2000 nM
IC50 (HT1197): > 2000 nM
IC50 (8305C): > 2000 nM
IC50 (JEG-3): > 2000 nM
IC50 (Daoy): > 2000 nM
IC50 (LCLC-103H cell line): > 2000 nM
IC50 (LN-405): > 2000 nM
IC50 (CWR22R): > 2000 nM
IC50 (NCI-H630): > 2000 nM
IC50 (HuP-T3): > 2000 nM
IC50 (SW756): > 2000 nM
